System: intestinal transit
Assay: Activity on intestinal transit in mice (carbon powder)
Type: in vivo, male ICR mice
Settings: for Intestinal transit (%): moving rate calculated for control animal
Method: Experiment 5. Activity on Intestinal Transit in Mice
The activity was determined by a modification of the method described in YAKURI-TO-CHIRYO, 10, 195, 1982.
Male ICR mice weighing 20 to 30 g were used which were deprived of food for 24 hours. A suspension containing 5% carbon powder gum arabic was orally administered to the animal in a dose of 1 ml 15 minutes after subcutaneous administration or 30 minutes after oral administration, of drugs. The intestinal tract was removed 20 minutes after. The entire length of the intestinal tract and the distance of the carbon powders moved were measured, and a moving rate was calculated for control animal.

Structure (SMILES): CC(C)n1c(=O)c(C(=O)N[C@H]2C[C@H]3CC[C@@H](C2)N3C)cc2ccccc21 [Compound 1, endo-N-(8-methyl-8-azabicyclo[3.2.1]oct-3-yl)-1-isopropyl-2(1H)-quinolone-3-carboxamide]
- effect on intestinal transit (oral and subcutaneous): accelerated the intestinal transit
- Intestinal transit (%) (p.o. 1 mg/kg, 5 cases): 100.6%
- Intestinal transit (%) (p.o. 3 mg/kg, 5 cases): 121.4%
- Intestinal transit (%) (p.o. 10 mg/kg, 6 cases): 120.4%
- Intestinal transit (%) (s.c. 1 mg/kg, 5 cases): 116.6%
- Intestinal transit (%) (s.c. 3 mg/kg, 4 cases): 117.8%
- Intestinal transit (%) (s.c. 10 mg/kg, 6 cases, **: P < 0.01): 138.3%

— patent publication US5571820A, “Heterocyclic compound” (Taisho Pharmaceutical Co., Ltd., priority 1992, dated 1996)
